PubChem BioAssay (NCI)
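All cell lines were grown in 96-well plates and treated with compound for 48 hours. Here, GI50 denotes the concentration required for 50% inhibition of growth. At the TGI there is no net growth.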

Key:
Assay in all cases: NCI-60 cell line screen, 48 h
NCI-H23 lung = system: NCI-H23 lung
NCI-H460 lung = system: NCI-H460 lung
NCI-H522 lung = system: NCI-H522 lung
NCI/ADR-RES ovarian = system: NCI/ADR-RES ovarian
OVCAR-3 ovarian = system: OVCAR-3 ovarian
OVCAR-4 ovarian = system: OVCAR-4 ovarian
OVCAR-5 ovarian = system: OVCAR-5 ovarian
OVCAR-8 ovarian = system: OVCAR-8 ovarian
PC-3 prostate = system: PC-3 prostate
RPMI-8226 leukemia = system: RPMI-8226 leukemia
RXF 393 renal = system: RXF 393 renal
SF-268 CNS = system: SF-268 CNS
SF-295 CNS = system: SF-295 CNS
SF-539 CNS = system: SF-539 CNS
SK-MEL-2 melanoma = system: SK-MEL-2 melanoma
SK-MEL-28 melanoma = system: SK-MEL-28 melanoma
SK-MEL-5 melanoma = system: SK-MEL-5 melanoma
SK-OV-3 ovarian = system: SK-OV-3 ovarian
SN12C renal = system: SN12C renal
SNB-19 CNS = system: SNB-19 CNS
SNB-75 CNS = system: SNB-75 CNS
SR leukemia = system: SR leukemia
SW-620 colon = system: SW-620 colon
T-47D breast = system: T-47D breast
TK-10 renal = system: TK-10 renal
U251 CNS = system: U251 CNS
UACC-257 melanoma = system: UACC-257 melanoma
UACC-62 melanoma = system: UACC-62 melanoma
UO-31 renal = system: UO-31 renal

NCCOc1ncccc1/C=C1\c2ccccc2-c2ccc(F)cc21
GI50 (NCI-H23 lung): 0.631 µM | TGI (NCI-H23 lung): 2.51 µM | GI50 (NCI-H460 lung): 0.236 µM | TGI (NCI-H460 lung): 1.37 µM | GI50 (NCI-H522 lung): 1.13 µM | TGI (NCI-H522 lung): 2.76 µM | GI50 (NCI/ADR-RES ovarian): 1.24 µM | TGI (NCI/ADR-RES ovarian): 2.71 µM | GI50 (OVCAR-3 ovarian): 1.63 µM | TGI (OVCAR-3 ovarian): 3.11 µM | GI50 (OVCAR-4 ovarian): 1.52 µM | TGI (OVCAR-4 ovarian): 3.47 µM | GI50 (OVCAR-5 ovarian): 1.57 µM | TGI (OVCAR-5 ovarian): 3.07 µM | GI50 (OVCAR-8 ovarian): 1.08 µM | TGI (OVCAR-8 ovarian): 2.75 µM | GI50 (PC-3 prostate): 1.18 µM | TGI (PC-3 prostate): 2.62 µM | GI50 (RPMI-8226 leukemia): 1.47 µM | TGI (RPMI-8226 leukemia): 3.51 µM | GI50 (RXF 393 renal): 1.6 µM | TGI (RXF 393 renal): 3.66 µM | GI50 (SF-268 CNS): 1.08 µM | TGI (SF-268 CNS): 4.1 µM | GI50 (SF-295 CNS): 0.462 µM | TGI (SF-295 CNS): 1.81 µM | GI50 (SF-539 CNS): 1.49 µM | TGI (SF-539 CNS): 2.87 µM | GI50 (SK-MEL-2 melanoma): 1.91 µM | TGI (SK-MEL-2 melanoma): 3.76 µM | GI50 (SK-MEL-28 melanoma): 1.62 µM | TGI (SK-MEL-28 melanoma): 3.04 µM | GI50 (SK-MEL-5 melanoma): 1.36 µM | TGI (SK-MEL-5 melanoma): 2.68 µM | GI50 (SK-OV-3 ovarian): 1.24 µM | TGI (SK-OV-3 ovarian): 2.91 µM | GI50 (SN12C renal): 0.449 µM | TGI (SN12C renal): 1.71 µM | GI50 (SNB-19 CNS): 0.57 µM | TGI (SNB-19 CNS): 2.58 µM | GI50 (SNB-75 CNS): 1.1 µM | TGI (SNB-75 CNS): 3.26 µM | GI50 (SR leukemia): 0.116 µM | TGI (SR leukemia): 2.94 µM | GI50 (SW-620 colon): 0.682 µM | TGI (SW-620 colon): 2.17 µM | GI50 (T-47D breast): 0.687 µM | TGI (T-47D breast): 2.74 µM | GI50 (TK-10 renal): 1.37 µM | TGI (TK-10 renal): 2.85 µM | GI50 (U251 CNS): 0.525 µM | TGI (U251 CNS): 1.85 µM | GI50 (UACC-257 melanoma): 1.66 µM | TGI (UACC-257 melanoma): 3.34 µM | GI50 (UACC-62 melanoma): 1.04 µM | TGI (UACC-62 melanoma): 2.38 µM | GI50 (UO-31 renal): 1.12 µM | TGI (UO-31 renal): 2.34 µM
